Data on 3 compounds can be found in patent US10203330B2, “Methods and materials for identifying and treating mammals having lung adenocarcinoma characterized by neuroendocrine differentiation” (Mayo Foundation for Medical Education and Research, priority 2013, dated 2019).

Entries after “also recorded” stand apart in the source; their conditions may differ.

Common to all, as to type: cell-based
The subject of data set [1] is A549 cells and A549-ASCL1 cells. Put plainly: Clonogenic number of A549 and A549-ASCL1 cells after cisplatin treatment. As to conditions: ASCL1 over-expressing cells versus cells not expressing ASCL1; 0, 3 or 9 μM cisplatin for 14 days, FIG. 15.
The next data set relates to ASCL1. Put plainly: ASCL1 knock down in HCC1833 cells, ASCL1 and RET expression. As to conditions: HCC1833 cells transfected with the construct, FIG. 13 left. The source says: Two cell lines are used to confirm the effectiveness of drugs for treating lung adenocarcinoma characterized by neuroendocrine differentiation. The first is the HCC1833 cell line, which was derived from lung AD and has high expression levels of ASCL1 and RET. The second in the A549 cell line which has low endogenous expression of ASCL1 and is stably transfected with ASCL1 (A549-As^+). A549-As^+ captures salient features of ASCL1^+ lung AD from patients, including increased expression of RET. HCC1833 are stably transfected with ASCL1 siRNA to knock down ASCL1 and produce a HCC1833-AsKD cell line. Lowering ASCL1 expression leads to low levels of RET expression.
(§1) The HCC1833 adenocarcinoma cell line expressed high endogenous levels of ASCL1 and RET (FIG. 13, left). […] In addition, STAT3 expression (in JAK/STAT3 pathway) went down.

The next data set concerns HCC1833 cells. The data set can be described thus: Filling the gap scratch assay. As to conditions: HCC1833 cells transfected with ASCL1 shRNA versus wild-type and control vector cells, day 3, FIG. 14; listed as ASCL1-sh2.
Excerpt: FIG. 14 contains photographs of cells from a filling the gap scratch assay (see, e.g., Liang et al., Nature Protocols, 2:329-333 (2007)).
as §1

Regarding `N.N.[Cl][Pt][Cl]` [cisplatin], in data set [1], the “remaining clonogenic potential after cisplatin treatment” value is given as “higher than in cells that did not express ASCL1”.

“sh1: a small interfering RNA construct that includes: GCCAACAAGAAGATGAGTAAG (SEQ ID NO: 1) (listed as DNA, chemistry not given here)”: in the data set on ASCL1, the ASCL1 expression entry is recorded as “reduced ASCL1 expression” and the RET expression entry is recorded as “reduced”.

As for “sh2: a small interfering RNA construct that includes: CAACCGCGTCAAGTTGGTCAA (SEQ ID NO:2) (listed as DNA, chemistry not given here)”, in the data set on ASCL1, the ASCL1 expression entry was “reduced ASCL1 expression” and the RET expression entry was “reduced”. Moreover, the “ability to fill the gap (migration capacity)” value with HCC1833 cells is “much slower ability to filling the gap; also recorded: did not fill as much of the gap”.
